Data reported in US10450549B2, “Aryloxyphenoxypropionate tolerance in turfrgass species and use of AAD1 as a selectable marker” (Dow AgroSciences, LLC, priority 2004, dated 2019).
Where “and” joins values, the source holds several entries; their conditions need not be identical. Equal entries are not always repeated.

Legend:
AAD2 (v1) = AAD2 (v1) (Bradyrhizobium diazoefficiens, UniProt Q89UC4); assay: Colorimetric phenol assay of AAD2 (v1) E. coli extract / partially purified enzyme; assay type: biochemical, Bradyrhizobium japonicum
[1] = system: AAD1 (v3) T1 tobacco (events 721(2)-013.010 and 721(3)-008.005); assay: Segregating AAD1 T1 tobacco response to phenoxy auxin herbicides; assay type: in vivo, Nicotiana tabacum; details: rates below 1× field rates (560 g ae/ha); either event
Text: Two AAD1 (v3) tobacco lines (event 721(2)-013.010 and 721(3)-008.005) were chosen from the T0 generation. The T1 seed was stratified, and sown into selection trays much like that of Arabidopsis (Example 6.4), followed by selective removal of untransformed nulls in this segregating population with 280 g ai/ha glufosinate (PAT selection). Survivors were transferred to individual 3-inch pots in the greenhouse. […] Improved consistency of response is anticipated in T1 plants not having come directly from tissue culture. These plants were compared against wildtype KY 160 tobacco. All plants were sprayed with the use of a track sprayer set at 187 L/ha. […] All applications were formulated in 200 mM Hepes buffer (pH 7.5). Each treatment was replicated 4 times. Plants were evaluated at 3 and 14 days after treatment. Plants were assigned injury rating with respect to stunting, chlorosis, and necrosis. The T1 generation is segregating, so some variable response is expected due to difference in zygosity. (Table 28).

[2] = system: F1 progeny of ‘Crenshaw’ creeping bentgrass pDAB5042 events; assay: AAD1 whole-plant selectable marker: F1 progeny of Crenshaw pDAB5042 events x elite lines, injury to 240 g ae/ha quizalofop-p-ethyl; assay type: in vivo
Protocol: The use of AAD1 as a selectable marker for quizalofop selection agent was tested with an “F1” generation of plants that were produced by crossing selected single copy pDAB5042 ‘Crenshaw’ events with non-transgenic elite lines (lines 3425-12, 3427-2, or 3431-1). ‘Crenshaw’ events were vernalized in a growth chamber; elite line crossing partners were field vernalized. Nearing the time of bloom, a non-transgenic plant at the same reproductive stage was moved into the growth chamber in close proximity of the pDAB5042 event. Panicles were secured together with a twist tie, and both panicles were bagged together and labeled. Alternatively, to increase the number of crosses, some panicles were excised and secured to an intact panicle and bagged. At seed harvest, individual seed heads were removed and packaged individually.
Seed were sown on flats containing Metromix™, and germinated in a growth chamber. All emerged seedlings were transplanted into growth medium prepared by mixing Promix® and sand in a 2 to 1 ratio. The medium was contained in plastic pots with a surface area of 84.6 square centimeters (cm^2). Plants were maintained in a greenhouse until established. Leaf tissue from each seedling was harvested for molecular analysis, and tissues were probed for the presence of AAD1. After tissue harvest, the established plants were trimmed to simulate mowing.
The same two plants were the only plants testing positive for one copy of AAD1.

[3] = system: Agrostis palustris var. Pencross; assay: Bentgrass plate test bioassay for herbicide degradation; assay type: in vivo; details: AAD1 (v1) extract
Protocol: Because of the selective nature of the herbicides being tested (i.e., monocot plants controlled by AOPP herbicides and dicot plants controlled by auxinic herbicides), wildtype Agrostis palustris var. Pencross and Arabidopsis thaliana var. Columbia were used as monocot and dicot test species, respectively. Each species is amenable to germination and growth in small Petri dishes.
Twenty to thirty sterilized seeds for each test species used were added onto a sterile, solidified agar Plate Test Medium (PTM) [2.5 mM KNO3, 2.5 mM KH2PO4, […], 10 mM NaEDTA (pH 8.0), 2 mM MgSO4, 2 mM Ca(NO3) 2, 70 μM H3BO3, 14 μM MnCl2, 0.5 μM CuSO4, 1 μM ZnSO4, 0.2 μM NaMoO4.2H2O, 10 μM NaCl, 10 nM CoCl2.H2O, 0.8% (w/v) sucrose, 0.4% agarose (w/v)] for bioassay in 60×15-mm Petri dishes (Falcon 1007). PTM was additionally modified by adding up to six rates of test herbicide standards or herbicide-enzyme test solution dilutions such that the four-fold concentration increments covered a rate range of three orders of magnitude with the GR50 rate (50% growth reduction) approximately in the center of the range.
For herbicide-enzyme test solutions, the maximal concentration was determined based on the nominal concentration before any subsequent enzymatic degradation would occur. Seeds were evenly spread by adding 3 ml of melted PTM of the same composition, swirling, and allowing to solidify. Plates were sealed and maintained under sterile conditions in a low light growth chamber (24 h day^−1, 100 μE/m^2s^1, 23° C.) for 7 days. Root length or root+shoot length were measured for five randomly chosen Arabidopsis and bentgrass plants, respectively, average mean length (percent of untreated control) vs. nominal herbicide concentration and GR50 determined.

[4] = system: T2 lineages from 3404 transformations; assay: Quizalofop tolerance with respect to AAD1 (v3) expression in T2 3404 lineages; assay type: in vivo, corn
[5] = system: ‘Justice’ tall fescue transgenic events; assay: Quizalofop on AAD1 ‘Justice’ tall fescue plants; assay type: in vivo; details: written in present tense
Protocol: ‘Justice’ tall fescue transgenic plants events were selected on tissue culture media containing quizalofop, and confirmed via PCR amplification of an inserted T-strand.
A growth medium was prepared by mixing Promix® and sand in a 2 to 1 ratio. The medium was contained in plastic pots. When required to maintain plant health, a fungicide, insecticide, and/or other chemical or physical treatment was applied to stock plants. The plants were maintained in a greenhouse and treated with fertilizer and growth supplements as needed and water was added on a regular basis. Supplemental lighting was provided.
The selected T0 plants are sprayed with quizalofop at rates ranging in concentration, beyond the typical in field usage rate. This rate structure is selected based on the GR90 (herbicide rate which produces 90% injury and/or growth inhibition) and the rate that would also control susceptible monocot weed species. […]
The treated plants and control plants are placed in a greenhouse and watered by sub-irrigation to prevent wash-off of the test compounds. At various times after application, the condition of the test plants as compared with that of the untreated plants is determined visually and scored on a scale of 0 to 100 percent, where 0 corresponds to no injury or growth inhibition, and 100 corresponds to complete kill. […]

Q: With `O=C(O)COc1ccc(Cl)cc1Cl` [2,4-D, 2,4-dichlorophenoxyacetic acid] as the molecule, how does the “Vmax (A510 units)” value (AAD2 (v1); AAD2 (pDAB3202), MOPS pH 6.75) read?
A: 0.86 A510 units

Q: And the “apparent Vmax, AAD2 (v1)” value (AAD2 (v1); partially purified enzyme)?
A: 0.86 A510 units

Q: What about the “injury of T1 AAD1 (v3) tobacco” value [1] of the same molecule?
A: No injury was observed

Q: Which “Visual Injury 39 DAA” value ([2]; F1 progeny of 3431-1 × pDAB5042 Event 162) does the source give for `CCOC(=O)[C@@H](C)Oc1ccc(Oc2cnc3cc(Cl)ccc3n2)cc1` [quizalofop-p-ethyl] here?
A: 100%

Q: What about the “Visual Injury 39 DAA” value ([2]; F1 progeny of NT6 × pDAB5042 Event 186) of the same molecule?
A: 95%

Q: And the “Visual Injury 39 DAA” value ([2]; individual F1 progeny of 3427-2 × pDAB5042 Event 186)?
A: 60% and 80% and 95% (4×) and 90% and 99% (3×) and 85% and 100% (2×)

Q: What about the “Visual Injury 39 DAA” value ([2]; individual F1 progeny of 3431-1 × pDAB5042 Event 127) of the same molecule?
A: 90% (4×) and 95% (4×) and 100% (6×) and 99%

Q: And the “Visual Injury 39 DAA” value ([2]; individual F1 progeny of 3431-1 × pDAB5042 Event 186)?
A: 100% (6×) and 99% (10×) and 95% (8×) and 80% (2×) and 90%

Q: And the “Visual Injury 39 DAA” value ([2]; individual F1 progeny of pDAB5042 Event 127 × 3431-1)?
A: 99% (3×) and 95%

Q: What about the “Visual Injury 39 DAA” value ([2]; individual F1 progeny of pDAB5042 Event 144 × 3425-12) of the same molecule?
A: 99% and 100%

Q: What about the “Visual Injury 39 DAA” value ([2]; individual F1 progeny of pDAB5042 Event 186 × 3425-12 (asterisk: AAD1 positive)) of the same molecule?
A: 0%

Q: What about the “Visual Injury 39 DAA” value ([2]; individual F1 progeny of pDAB5042 Event 186 × 3431-1) of the same molecule?
A: 99% (4×) and 100% (2×) and 90%

Q: What about the “Visual Injury 39 DAA” value ([2]; individual progeny of NT6 × 3427-2) of the same molecule?
A: 90% and 100% (2×)

Q: Which “herbicidal activity after AAD1 (v1) treatment, bentgrass plate bioassay” value [3] does the source give for `CC(Oc1ccc(Oc2ncc(C(F)(F)F)cc2Cl)cc1)C(=O)O` (stereo not shown) [haloxyfop] here?
A: loss of herbicidal activity

Q: Which “highest level tested at which corn expressing AAD1 (v3) is protected from injury” value [4] does the source give for `C[C@@H](Oc1ccc(Oc2cnc3cc(Cl)ccc3n2)cc1)C(=O)O` [quizalofop] here?
A: 2,240 g/ha

Q: And the “injury of tall fescue events compared to non-transgenic control plants” value [5]?
A: less injury
